Measurements published in patent US7964598B2 (The J. David Gladstone Institutes, priority 1995, dated 2011).
Where “and” joins values, the source holds several entries; their conditions need not be identical. Identical values can stand only once. Entries after “also recorded” stand apart in the source; their conditions may differ.

How the values were obtained:
Water solubility = type: physicochemical
apoE3 [1] = target: T1, apoE3 (Homo sapiens, UniProt P02649); assay: Emulsion binding assay, apoE3; conditions: follow-up assay
T1 construct: made in house
T1 sequence (P02649 19-317): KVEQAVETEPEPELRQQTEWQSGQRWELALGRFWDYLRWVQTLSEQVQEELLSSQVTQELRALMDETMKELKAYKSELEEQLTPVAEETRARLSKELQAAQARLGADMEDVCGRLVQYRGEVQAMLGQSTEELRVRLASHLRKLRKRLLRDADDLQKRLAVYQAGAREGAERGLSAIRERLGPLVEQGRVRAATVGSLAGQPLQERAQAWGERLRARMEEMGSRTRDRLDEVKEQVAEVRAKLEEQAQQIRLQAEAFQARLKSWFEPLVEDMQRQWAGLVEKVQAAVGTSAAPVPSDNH
Description: (§1) Preparation of emulsion particles. Triolein (160 mg) and L-alpha-Phosphatidylcholine (40 mg) are combined and dried under nitrogen. After the addition of 8 mls of buffer (10 mM Tris, 100 mM KCl, 1 mM EDTA, pH 8.0), the mixture is sonicated in a water bath to obtain a heterogeneous mix of emulsion particles. The particles are harvested by ultracentrifugation (TLA 100.2 rotor, 30,000 rpm for 30 minutes) and the subsequent lipid cake is removed by tube slicing and resuspended in 100 μt 20 mM Phosphate Buffer (PB). Triolein and phospholipid content are measured and total emulsion particle concentration is determined.
(§2) Radiolabelling Freshly denatured and renatured Apolipoprotein E3 and E4 are radiolabelled using Bolton-Hunter Reagent [^125I] (ICN). Specific Activity is determined using Lowry method and Gamma 8000 counter.
(§3) Binding Affinity Assay. […] In glass tubes, 25 μg of protein (with iodinated tracer) was reduced with 1% β-mercaptoethanol. Two hundred and fifty μg of emulsion particles and 2.5 μl of compound (10 mM stock) were added and the final mixture was brought up to 250 μl with 20 mM phosphate buffer (PB). The reaction mixture was then incubated in a 37° C. water bath for 2 hours before being transferred to 1.5 ml ultracentrifuge tubes. Finally, 50 μl of 60% sucrose was mixed with the sample and 400 μl 20 mM PB was carefully layered on top. Using a TLA 100.2 rotor, the tube was spun at 30,000 rpm for 30 minutes and subsequently cut to separate the floating emulsion particle layer from the free protein at the bottom of the tube. These fractions were then combined with the respective half of the actual tube and counted using a Gamma-8000. […] Protein-only assays yielded 94.5-96.6% of protein accumulated in the bottom portion of the tube. In emulsion particle-only assays, 94% of emulsion particles accumulated in the top portion of the tube.
(§4) Preparation of Emulsion Particles and VLDL Binding Affinity Assay. VLDL-like emulsion particles were prepared using triolein (160 mg) and L-alpha-phosphatidylcholine (40 mg), as described. Dong and Weisgraber (1996) supra; and Dong et al. (1994) J. Biol. Chem. 269:22358-22365.

Neuro-2a cells [2] = assay: Aβ-induced lysosomal leakage (cytosolic β-hexosaminidase); type: cell-based, mouse
Description: The cytosolic fraction was obtained by ultracentrifugation, and the cytosolic β-hexosaminidase activity was measured.
Quantitation of the lysosomal enzyme β-hexosaminidase activity in the cytosol indicates lysosomal leakage. […] After incubation the cells were washed and cytosolic fractions were isolated as described in Materials and Methods. The enzymatic activity of β-hexosaminidase was assayed in 20 μg of cytosolic protein for each sample.
Lysosomal leakage was quantitated by assaying cytosolic 0-hexosaminidase activity. […] Conditioned media were prepared as described above. Apoptosis was quantitated by measuring DNA fragmentation.

B103 cells = assay: Toxicity to B103 cells; type: cell-based, rat; conditions: at the micromole level
apoE3 [3] = assay: Aβ production assay, B103-APP cells incubated with apoE3; type: cell-based, rat; conditions: FIG. 22
Description: Aβ production assay. Stable neuroblastoma B103 cell lines transfected with a wildtype hAPP cDNA construct (B 103-APP) were selected by growing them in Dulbecco's modified Eagle's medium (DMEM) containing 10% fetal calf serum (FBS) and 400 μg/ml G418. A cell line expressing APP at similar levels in mouse brains has been identified by RNase protection assay (RPA) and was used in the studies described below. To determine Aβ production, B103-APP cells were incubated with serum-free minimal essential medium (MEM) containing N2 supplements with or without apoE isoforms for 24 h at 37° C. After incubation, 50 μl of medium was collected and assayed for Aβ levels with an ELISA method. The cells were lysed, and cellular proteins were determined by the Lowry method. AP production was normalized to cellular protein.
Cell Culture. Rat neuroblastoma B103 cells stably expressing human wildtype APP (hAPP695wt) (Xu et al. ((1999) Proc. Natl. Acad. Sci. USA 96:7547-7552; Esposito, et al. (2004) J. Neurochem. 91:1260-1274) were generated in Dr. Lennart Mucke's laboratory at the Gladstone Institute of Neurological Disease and maintained in Dulbecco's modified Eagle's medium (DMEM) (GIBCO, Grand Island, N.Y.) containing 400 μg/ml G418, 10% fetal bovine serum, and 5% horse serum at 37° C. Twenty-four hours after plating into 48-well plates (1×10^5 cells per well), cells were washed twice with serum-free DMEM and cultured for another 24 h in DMEM containing 1% N-2 supplement (GIBCO) to induce differentiation. The cells were treated with either β-VLDL (25 μg/ml cholesterol), recombinant human apoE isoform-enriched β-VLDL (7.5 μg/ml apoE and 25 μg/ml cholesterol), or recombinant human apoE (7.5 μg/ml apoE) in fresh DMEM containing 1% N-2 supplement for an additional 24 h. In some experiments, RAP (25 nM or 1 μM) was added to the cells 1 h before apoE treatment.
Aβ Assay. Aβ secreted into the medium was detected with a sandwich enzyme-linked immunosorbent assay (ELISA), using mAb 266 as a capturing antibody and 3D6 as a detecting antibody, as described. Johnson-Wood et al. ((1997) Proc. Natl. Acad. Sci. USA 94:1550-1555). Aβ was quantified from a standard curve (Aβ42; Bachem, Torrance, Calif.) and normalized by total cellular protein.

apoE4 = target: T2, apoE4 (Homo sapiens, UniProt P02649, C130R); assay: Emulsion binding assay for domain interaction, apoE4
T2 construct: made in house
T2 sequence (P02649 19-317 C130R): as the sequence (P02649 19-317) above, with C112R counted along it
Description: as §1, §2, §3, §4

Neuro-2a cells [4] = assay: Aβ-induced apoptosis (DNA fragmentation assay); type: cell-based, mouse
Description: DNA Fragmentation Assay—DNA fragmentation of apoptotic cells was determined with Cell Death Detection ELISA kits (Roche, Indianapolis, Ind.).
FIG. 38. […] Control cells were not treated with Aβ1-42. Apoptotic cell death was measured with a DNA fragmentation assay. Values are the mean±S.D. of three separate experiments.
FIGS. 39A and 39B. […] Lysosomal leakage was quantitated by assaying cytosolic 0-hexosaminidase activity. […] Conditioned media were prepared as described above. Apoptosis was quantitated by measuring DNA fragmentation.

YFP-apoE4-CFP cells = assay: MTT cytotoxicity assay; type: cell-based, mouse; conditions: 5-10 μM
From the text: (§5) Since the emission spectrum of CFP (460-520 nm) overlaps with the excitation spectrum of YFP (480-520 nm), FLEXstation (Molecular Devices) can be used to measure FRET in living cells expressing YFP-apoE3-CFP or YFP-apoE4-CFP in a high throughput manner. […] Thus, the ratio of FRET to CFP emission in cells expressing YFP-apoE4-CFP is much higher than that in those expressing YFP-apoE3-CFP (FIG. 31). […] Since the FLEXstation can read FRET in both cells and the culture media treated without or with various small molecules, this assay allows one to know whether a small molecule affects apoE4 domain interaction only in the medium (“medium FRET”) or also inside the cell (“intracellular FRET”). In addition, after measurement of the intracellular FRET, the cells can be incubated further with MTT to determine the cytotoxicity of the compound. Thus, the cell-based FRET assay can simultaneously provide three sets of data-intracellular FRET, medium FRET, and cytotoxicity.

YFP-apoE4-CFP = target: T3, YFP-apoE4-CFP (Homo sapiens, UniProt P02649, C130R); assay: Cell-based FRET assay, YFP-apoE4-CFP; conditions: 5-20 μM; for ratio of FRET to CFP emission in the cells expressing YFP-apoE4-CFP: intracellular; for ratio of FRET to CFP emission in media of YFP-apoE4-CFP cells: medium
T3 construct: vector signal peptide (pFLAG-CMV3) (N); FLAG (N); expressed in transfected cells
T3 sequence (P02649 19-317 C130R): as the sequence (P02649 19-317) above, with C112R counted along it
From the text: (§6) Xu et al. (2004) J. Biol. Chem. 279:25511-25516. FRET—the non-radioactive transfer of photon energy from an excited fluorophore (donor) to another fluorophore (acceptor)—occurs only when the donor and acceptor are in close proximity (<100 Å). Thus, this approach can be used to measure nanometer scale distances.
(§7) Xu et al. (2004) J. Biol. Chem. 279:25511-25516. The constructs are depicted schematically in FIG. 29.
as §5
(§8) Quantifying FRET in Transfected Neuro-2a Cells—Stably transfected Neuro-2a cells expressing YFP-apoE3-CFP or YFP-apoE4-CFP at similar levels were selected by fluorescence activated cell sorter (FACS). YFP and CFP images of transfected cells were acquired with the Meta Detector, and their fluorescence intensities were analyzed with the mounted computer. The FRET signal was calculated as the ratio of YFP to CFP fluorescence intensity under CFP excitation. For each YFP-apoE-CFP construct, the FRET signal was measured in at least 12 cells from different fields.
(§9) Quantifying FRET in the Culture Medium—Neuro-2a cells stably expressing YFP-apoE3-CFP or YFP-apoE4-CFP and wildtype cells were grown in T175 flasks to 90% confluence and incubated with serum-free minimum essential medium containing N2 supplement for 24 h. The conditioned medium (20 ml/flask) was concentrated about 20-fold with Centriplus-YM-10 concentrators (Amicon, Bedford, Mass.), dialyzed against PBS, illuminated at the CFP excitation wavelength (430 nm), and scanned for emission spectrum. The FRET signal was calculated as the ratio of emission at 525 nm (YFP) to that at 475 nm (CFP). Conditioned medium from cells expressing apoE3-CFP or apoE4-CFP was used to determine baseline fluorescence in the absence of FRET.

YFP-apoE3-CFP = target: T4, YFP-apoE3-CFP (Homo sapiens, UniProt P02649); assay: Cell-based FRET assay, YFP-apoE3-CFP; conditions: for ratio of FRET to CFP emission in cells expressing YFP-apoE3-CFP: intracellular; for ratio of FRET to CFP emission in media of YFP-apoE3-CFP cells: medium
T4 construct: vector signal peptide (pFLAG-CMV3) (N); FLAG (N); expressed in transfected cells
T4 sequence (P02649 19-317): as the sequence (P02649 19-317) above
From the text: as §6, §7, §5, §8, §9

[5] = follow-up assay, second E4 control
[6] = initial assay, 2.5 μl of compound (10 mM stock) in 250 μl, 37° C. 2 hours, listed as 3-butyl-1-ethyl-5-(2-(3-sulfobutyl-benzo(1,3)oxazo, potassium salt))

SMILES: CCCCN1C(=O)/C(=C/C=C2/Oc3ccccc3N2CCCCS(=O)(=O)[O-])N(CC)C1=S.[K+] [GIND-105]
- water solubility (Water solubility): water-soluble
- E3 + compound, % bound (apoE3 [1]): 30%
- E3 + compound, % free (apoE3 [1]): 70%
- lysosomal leakage, cells with medium alone or medium containing apoE3 plus Aβ1-42 (Neuro-2a cells [2]): no significant effect
- toxicity to B103 cells (B103 cells): no significant toxicity
- effect on apoE3 (Aβ production) (apoE3 [3]): no effect
- E4 + cpd n = 3, % bound (apoE4; follow-up assay): 57%
- E4 + cpd n = 3, % free (apoE4; follow-up assay): 43%
- E4 control, % bound (apoE4; [5]): 45%
- E4 control, % free (apoE4; [5]): 55%
- E4 + cpd, % bound (apoE4; [6]): 28% and 21%
- E4 + cpd, % free (apoE4; [6]): 72% and 79%
- apoptosis, cells with medium alone or medium containing apoE3 plus Aβ1-42 (Neuro-2a cells [4]): no significant effect
- cytotoxicity (MTT assay) (YFP-apoE4-CFP cells): did not cause significant cytotoxicity

SMILES: Cc1cc(Cl)cc2sc(-c3sc4cc(Cl)cc(C)c4c3OS(=O)(=O)O)c(OS(=O)(=O)O)c12 [GIND-111]
- ratio of FRET to CFP emission in the cells expressing YFP-apoE4-CFP (YFP-apoE4-CFP): decreased significantly
- ratio of FRET to CFP emission in media of YFP-apoE4-CFP cells (YFP-apoE4-CFP): decreased significantly
- ratio of FRET to CFP emission in cells expressing YFP-apoE3-CFP (YFP-apoE3-CFP): none of these compounds altered significantly
- ratio of FRET to CFP emission in media of YFP-apoE3-CFP cells (YFP-apoE3-CFP): none of these compounds altered significantly
- cytotoxicity (MTT assay) (YFP-apoE4-CFP cells): did not cause significant cytotoxicity

SMILES: CCN(CC)c1ccc(/N=N\c2cc(S(=O)(=O)O)cc3cc(S(=O)(=O)O)cc(O)c23)c(O)c1 [GIND-28]
- ratio of FRET to CFP emission in the cells expressing YFP-apoE4-CFP (YFP-apoE4-CFP): decreased significantly
- ratio of FRET to CFP emission in media of YFP-apoE4-CFP cells (YFP-apoE4-CFP): decreased significantly
- ratio of FRET to CFP emission in cells expressing YFP-apoE3-CFP (YFP-apoE3-CFP): none of these compounds altered significantly
- ratio of FRET to CFP emission in media of YFP-apoE3-CFP cells (YFP-apoE3-CFP): none of these compounds altered significantly
- lysosomal leakage, cells with medium alone or medium containing apoE3 plus Aβ1-42 (Neuro-2a cells [2]): no significant effect
- apoE4 potentiation of Aβ-induced lysosomal leakage (Neuro-2a cells [2]; 5 μM, apoE4 conditioned medium, Aβ1-42 20 μM): block; also recorded: abolish
- apoptosis, cells with medium alone or medium containing apoE3 plus Aβ1-42 (Neuro-2a cells [4]): no significant effect
- apoE4 potentiation of Aβ-induced apoptosis (Neuro-2a cells [4]; apoE4 conditioned medium, Aβ1-42): block; also recorded: abolish
- cytotoxicity (MTT assay) (YFP-apoE4-CFP cells): did not cause significant cytotoxicity
